Results taken from patent US20180296551A1, “METHODS AND COMPOSITIONS FOR TREATING NEURODEGENERATIVE DISEASES” (priority 2015, published 2018).

Columns and labels:
AP = AP by ELISA in 3×Tg-AD mice; format: in vivo; conditions: membrane fraction, 0.5 mg/kg AMD3100 (+0.17 mg/kg Zn+896 mg/kg lactate), vs PBS
Method: Experimental set-up: 9 month old 3×Tg-AD mice were treated with PBS or 0.5 mg/kg AMD3100 or 0.5 mg/kg AMD3100 0.17 mg/kg Zn or 0.5 mg/kg AMD3100+0.17 mg/kg Zn+896 mg/kg lactate once a week. All treatments were administered subcutaneously. After 3 month of treatment, all mice were subjected to Y maze test in order to evaluate their cognitive function. Each mouse was allowed to explore two arms of the Y maze for 5 min, rested for another 5 min, and then explored all 3 arms of the Y maze for another 5 min.

MCT1 = conditions: female SOD1-G93A mice; 5 mg/kg AMD3100; spinal cord (FIG. 4A); vs control
From the text: The control group is set to 100%. Results are mean ±S.E.M, T-test; *p<0.05.

SOD1-G93A mice [1] = assay: Survival (time taken until death) of SOD1-G93A mice; format: in vivo
Method: Experimental set-up: 50 day old female SOD1-G93A mice were treated with either 5 mg/kg AMD3100 alone, 896 mg/kg Na-L-lactate alone or a combination of […] AMD3100 and 896 mg/kg Na-L-lactate twice a week, starting at 50 days old (for ALS), until death. All treatments were administered subcutaneously. The mice were weighed once a week following the various treatments and tested for motor function, also once a week. The time taken until death was recorded.
Experimental set-up: 50 day old female SOD1-G93A mice were treated with either 5 mg/kg AMD3100 alone or a complex of 0.25 mg/kg AMD3100+0.08 mg/kg Zinc or 0.125 mg/kg AMD3100+0.04 mg/kg Zinc twice a week, starting at 50 days old until death. All treatments were administered subcutaneously. The mice were weighed once a week following the various treatments and tested for motor function, also once a week. The time taken until death was recorded.
Experimental set-up: 50 day old male SOD1-G93A mice were treated with either 5 mg/kg AMD3100 alone or a complex of 0.5 mg/kg AMD3100+0.17 mg/kg Zinc+896 mg/kg lactate twice a week, starting at 50 days old, till death. All treatments were administered subcutaneously. The time taken until death was recorded.

SOD1-G93A mice [2] = conditions: SOD1-G93A transgenic mice; previously shown; cited from earlier work
SOD1-G93A mice [3] = conditions: SOD1-G93A transgenic mice; previously shown; cited from earlier work; remark: listed apart in the source
SOD1-G93A mice [4] = conditions: SOD1-G93A transgenic mice; previously shown; cited from earlier work; remark: listed apart in the source

Row | SMILES | AP change by ELISA (AP) | MCT1 levels (MCT1) | median survival (SOD1-G93A mice [1]; female SOD1-G93A mice, 5 mg/kg AMD3100 s.c. twice a week from 50 days old) | median survival (SOD1-G93A mice [1]; male SOD1-G93A mice, 5 mg/kg AMD3100 s.c. twice a week from 50 days old) | motor function (in words) (SOD1-G93A mice [2]) | disease onset (in words) (SOD1-G93A mice [3]) | survival (in words) (SOD1-G93A mice [4]) | median survival (SOD1-G93A mice [1]; female SOD1-G93A mice, 896 mg/kg lactate s.c. twice a week from 50 days old)
1 | c1cc(CN2CCCNCCNCCCNCC2)ccc1CN1CCCNCCNCCCNCC1 [AMD3100, 1,1′-[1,4-phenylenebis(methylene)]bis [1,4,8,11-tetraazacyclotetradecane]] | Reduction in AP was statistically significant | increase | 144 days | 140 days | improved | delayed | significantly increased | 
2 | C[C@H](O)C(=O)[O-].[Na+] [lactate, Na-L-lactate] |  |  |  |  |  |  |  | 148 days
